Laboratory results as given in US6878746B2, “Carbamate and thiocarbamate podophyllotoxin derivatives, preparation method and pharmaceutical compositions containing them” (priority 2000, dated 2005).

What was measured:
[1] = test system: Lewis lung carcinoma (LLC); assay: Anti-tumour activity on Lewis lung carcinoma; assay type: in vivo, B6D2F1 mice; conditions: D 4, 8, 12; for T/C %: increase in survival time; for Survivors D90: surviving animals on day 90, 7 animals per group
Excerpt: Lewis lung carcinoma (LLC) is a solid tumour that appeared spontaneously in the lungs of a C57B1/6 mouse and is maintained by successive transplants of fragments by the s.c. route. The LLC was obtained from the Division of Cancer Treatment, Tumor Repository, National Cancer Institute, Frederick, Md., USA. The mice, which are 4 to 6 weeks old, were obtained from Iffa Credo (Lyon, France), and weighed from 20 to 22 g at the beginning of the experiment.
On the first day of the experiment (D0), the tumours are removed and cut into fragments of approximately 30 mg which are immediately grafted by the s.c. route into the B6D2F1 mice. The mice into which the fragments have been implanted are then randomly divided into the treated groups and the control group (7 animals per group).
The parameter used for evaluating the anti-tumour activity is the increase in survival time.
In addition, the number of surviving animals in each group is counted at the end of the experiment on day 90.
The products were administered in accordance with the scheme shown below. The results are expressed as % T/C, calculated in the same manner as in the preceding test: […]

murine leukaemia L1210 = assay: In vitro cytotoxicity, Microculture Tetrazolium Assay; assay type: cell-based; conditions: exposure for four doubling periods (48 or 96 hours)
Procedure: (§1) The compounds of the invention were tested on various human and murine cell lines: • murine leukaemia L1210, • epidermoid carcinoma A-431, • non-small-cell lung carcinoma A549, • small-cell lung carcinoma H69, • colon carcinoma HT29, • buccal epidermoid carcinoma KB-3-1.
(§2) The cells are cultured in RPMI 1640 complete culture medium comprising 10% foetal calf serum, 2 mM glutamine, 50 units/ml of penicillin, 50 μg/ml of streptomycin and 10 mM Hepes, pH 7.4. The cells are distributed on microplates and are exposed to the cytotoxic compounds for four doubling periods, that is to say 48 hours or 96 hours. The number of viable cells is then quantified by a colorimetric assay, the Microculture Tetrazolium Assay (J. Carmichael et al., Cancer Res.; 47, 936-942, (1987)). The results are expressed as IC50, the cytotoxic concentration that inhibits the proliferation of the treated cells by 50%.

[2] = test system: buccal epidermoid carcinoma KB-3-1; assay: as above; assay type: cell-based, human; conditions: exposure for four doubling periods (48 or 96 hours)
Procedure: as §1, §2

colon carcinoma HT29 = assay: as above; assay type: cell-based, human; conditions: exposure for four doubling periods (48 or 96 hours)
Procedure: as §1, §2

[3] = test system: epidermoid carcinoma A-431; assay: as above; assay type: cell-based, human; conditions: exposure for four doubling periods (48 or 96 hours)
Procedure: as §1, §2

[4] = test system: non-small-cell lung carcinoma A549; assay: as above; assay type: cell-based, human; conditions: exposure for four doubling periods (48 or 96 hours)
Procedure: as §1, §2

[5] = test system: small-cell lung carcinoma H69; assay: as above; assay type: cell-based, human; conditions: exposure for four doubling periods (48 or 96 hours)
Procedure: as §1, §2

L1210 cells = assay: Action on the cell cycle (propidium iodide); assay type: cell-based, murine; conditions: 100 nM, after 21 hours; control: 20%
Procedure: L1210 cells are incubated for 21 hours at 37° C. in the presence of various concentrations of test compounds. The cells are then fixed using 70% ethanol (v/v), washed twice in PBS and incubated for 30 minutes at 20° C. in PBS that contains 100 μg/ml of RNAse and 50 μg/ml of propidium iodide. The results are expressed as a percentage of the cells that have accumulated in the G2+M phase after 21 hours compared with the control (control: 20%). At a concentration of 100 nM, the compound of Example 6 induces an 86% accumulation of the cells in the G2+M phase after 21 hours.

P388 (murine leukaemia) = assay: Anti-tumour activity on P388 leukaemia; assay type: in vivo, female BDF1 mice; conditions: 6.25 mg/kg, intravenous route on day 1; tumour cells inoculated i.p.
Procedure: Line P388 (murine leukaemia) was supplied by the National Cancer Institute (Frederick, USA). The tumour cells (10^6 cells) were inoculated on day 0 into the peritoneal cavity of female BDF1 mice (Iffa-Credo, France) weighing from 18 to 20 g (groups of 6 animals).
The products were administered by the intravenous route on day 1.
The anti-tumour activity is expressed as % T/C: [formula] For information only, the compound of Example 6 is active against P388 leukaemia and induces a T/C of 203% at 6.25 mg/kg. *Anti-tumour Activity of the Compounds on Lewis Lung Carcinoma: […]

| Compound | T/C % ([1]; 25 mg/kg i.v.) | Survivors D90 ([1]; 25 mg/kg i.v.) | IC50 (murine leukaemia L1210) | IC50 [2] | IC50 (colon carcinoma HT29) | IC50 [3] | IC50 [4] | IC50 [5] | accumulation of the cells in the G2+M phase (L1210 cells) | T/C (P388 (murine leukaemia)) | T/C % ([1]; 3.12 mg/kg i.v.) | Survivors D90 ([1]; 3.12 mg/kg i.v.) |
| --- | --- | --- | --- | --- | --- | --- | --- | --- | --- | --- | --- | --- |
| COc1cc([C@@H]2c3cc4c(cc3[C@@H](OC(=O)N(C)CCN(C)C)[C@@H]3COC(=O)[C@@H]23)OCO4)cc(OC)c1O [Example 1, (5S,5aS,8aS,9R)-9-(4-Hydroxy-3,5-dimethoxyphenyl)-8-oxo-5,5a,6,8,8a,9-hexahydro-furo[3′,4′:6,7]naphtho[2,3-d][1,3] dioxol-5-yl 2-(dimethylamino)ethyl(methyl)carbamate] | 165% | 1/7 |  |  |  |  |  |  |  |  |  |  |
| (5S,5aS,8aS,9R)-9-(4-Hydroxy-3,5-dimethoxyphenyl)-8-oxo-5,5a,6,8,8a,9-hexahydro-furo[3′,4′:6,7]naphtho[2,3-d][1,3]dioxol-5-yl-2-(dimethylamino)ethylcarbamate [Example 6] |  |  | 38 nM | 85 nM | 121 nM | 71 nM | 46 nM | 96 nM | 86% | 203% | 168% | 1/7 |
